The results in this text go back to patent US20140322704A1, “Hepatitis Virus Culture Systems Using Stem Cell-Derived Human Hepatocyte-Like Cells and Their Methods of Use” (The Florida State University Research Foundation, Inc., priority 2011, published 2014).

Format in all cases: cell-based
Test [1] deals with JFH-1 based HCVcc. The experiment in a line: HCVcc infection of DHHs in the presence of HCV inhibitors (FIG. 2D). The source says:
FIG. 2 depicts the results of experiments assessing infection of DHHs derived from hESCs and iPSCs. (A) Detection of HCV proteins in DHHs infected with JFH-1 based HCVcc. DHHs were inoculated with three different preparations of HCVcc at day 13 post-differentiation and cell lysates collected at day 21 for western blot analysis. The anti-NS3 antibody also recognized a non-specific band in the mock infected sample. (B) Immunostaining of infected DHHs. A JFH variant containing a FLAG tag in the NS5A protein was used to infect either Huh-7.5 or DHHs and staining was done with an anti-FLAG antibody. (C) Infection of Huh-7.5 and DHHs as measured by the HCV-dependent fluorescence relocalization assay. Reporter-transduced cells were infected with HCVcc and the cells were fixed for immunofluorescence analysis 72 hours post-infection. For the RFP-NLS-IPS expressing cells, HCV infection leads to complete nuclear translocation of the RFP; for the EGFP-IPS cells, HCV infection leads to redistribution of green fluorescence from a reticulate cytoplasmic pattern to a diffused pattern with a nuclear enrichment. […] The following inhibitors were included in the infection experiments. IFN: interferon-α, 80 units/ml; AR3A: anti-E2 neutralizing antibody, 1 μg/ml; ITX: ITX5061, an SR-BI inhibitor, 1 μM. (E) Comparison of HCVcc infection levels in DHHs and PHHs. PHHs were infected for 8 days to keep the infected days the same between the two cell types (DHHs were infected at day 13 and the lysed at day 21). (F) Infection of DHHs derived from an iPSC line. Differentiation and infection of iPS.K3 were performed as described for H9-derived DHHs (FIG. 1 and FIG. 2A).
All JFH-1 based HCVcc (Mut4-6, SAV, Jc1/GLuc2A, and DEYN-Jc1/GLuc2A) were produced in Huh-7.5 cells as previously described (2005, Lindenbach, et al., Science 309:623-626). Genotype 1b HCVser was obtained from a commercial supplier (Teragenix, Ft. Lauderdale, Fla.). All infections were done by incubating virus inoculum with cells for 6-9 hours before the cells were washed and changed into the appropriate medium for the specific cell type and differentiation stage. For the time course of DHHs permissiveness, infection of each time point was allowed to proceed for exactly 48 hours before cell harvesting and western blotting. Immunofluorescence analysis of HCV receptors and intracellular antigens. Cells were fixed in 4% paraformaldehyde in phosphate-buffered saline (PBS) at room temperature for 10 minutes and blocked with PBGB (PBS containing 10% normal goat serum, and 1% bovine serum albumin (BSA)) at room temperature for 2 hours. Cells were incubated with primary antibodies (anti-CD81, anti-SR-B1, anti-claudin 1 and anti-occludin, diluted in PBG at 1:200) at 4° C. overnight or 2 hours at room temperature. […]

In test [2] the test system is HCVcc. The experiment in a line: Secretion of HCV core antigen into culture medium by HCVcc-infected DHHs, core ELISA (FIG. 3B). Particulars: IFN-α 50 units/ml; 48 hours after infection; H9-derived DHHs. The procedure: FIG. 3 depicts the results of experiments showing that DHHs support persistent infection and secrete infectious HCV particles. (A) Continuous replication of HCVcc in DHHs. Day-10 DHHs were infected with Jc1/GLuc2A for 9 hours before the inoculum was removed and the cells were changed into medium E with or without a cyclophilin inhibitor CsA at 1 μg/ml. Culture supernatants were collected daily to measure luciferase activity. The culture media was replaced with thorough washing every 48 hours and CsA was included every time fresh media was used. Error bars represent standard deviation from triplicate experiments. (B) Secretion of HCV core antigen into the culture medium by infected DHHs. […]
To quantify miR-122 levels, TRIzol extracted RNA samples were reverse transcribed using TaqMan MicroRNA Reverse Transcription kit (Applied Biosystems) and the resulting cDNA served as templates for Real-Time PCR analysis using TaqMan MicroRNA Assay for miR-122 (Applied Biosystems). […]
To verify continuous viral replication during the infection period, the secretion of Gaussia luciferase into the culture media by the DHHs infected with the GLuc reporter virus was monitored using a procedure previously used to monitor persistent HCV infection in microscale PHHs (2010, Floss et al., Proc Natl Acad Sci USA 107:3141-3145). […]

The subject of test [3] is genotype 1b HCVser. The experiment in a line: Infection of DHHs by patient serum-derived HCV, western blotting (FIG. 7A). As to conditions: IFN-α 50 units/ml; genotype 1b patient serum; 48 hours. The source says: FIG. 7 depicts the results of experiments assessing the direct infection of DHHs by HCV derived from patient serum. (A) Detection of IFN-sensitive HCVser infection by western blotting IFN-α was included in the medium at 50 units/ml when indicated. (B) Visualization of single cell infection events by HCVser using the HCV-dependent fluorescence relocalization assay. Arrows indicate individual cells infected with HCVser and showing nuclear translocation of the RFP. (C) Secretion of HCV core antigen into culture supernatant by HCVser-infected DHHs. Values for core levels in supernatants collected 48 hours post-infection were plotted. IFN-α was included in the medium at 50 units/ml when indicated. Error bars represent standard deviation of replicate experiments. (D) HCVser preferentially infected DHHs over Huh-7.5 cells. […]
Although robust infection of PHHs by HCVcc has been reported (2010, Podevin et al., Gastroenterology 1355-1364; 2010, Ploss et al., Proc Natl Acad Sci USA 107:3141-3145; 2010, Banaudha et al., Hepatology 51:1922-1932), direct infection by HCV derived from patient serum (HCVser) remained inefficient (2010, Podevin et al., Gastroenterology. 139:1355-1364; 1998, Fournier et al., J Gen Virol. 79:2367-2374). […] In addition, secretion of HCV core antigen was detected in the supernatant of the DHHs infected by HCVser (FIG. 7C).
A general note: In western blotting, separated proteins are transferred to a membrane and probed.

Regarding interferon-α [IFN-α], the “HCV infection in DHHs” value in test [1] (interferon-α 80 units/ml) is recorded as “efficiently blocked infection”; in test [1] (interferon-α 80 units/ml, listed as IFN) it was “abolished HCV infection”. Moreover, the “HCV core antigen in the supernatant of infected cells” value in test [2] is reported as “not in that of the similarly infected but IFN-treated cells”. For the same compound, the “HCVser infection of DHHs detected by western blotting” value in test [3] was “sensitive to IFN inhibition”.
For `COc1c(NC(=O)C(=O)c2ccc(OCCN3CCOCC3)c3ccccc23)cc(C(C)(C)C)cc1NS(C)(=O)=O` [ITX5061], the “HCV infection in DHHs” value in test [1] (ITX5061 1 μM) is given as “abolished HCV infection”; in test [1] (ITX5061 1 μM, listed as small molecule compound that inhibits the scavenger receptor class B type I (SR-), “efficiently blocked infection”.
